The record followed here is PubChem BioAssay (NCI).

Values joined by “and” are separate entries in the source; they are usually repeats but may differ in a detail not shown here. Identical values can stand only once.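 Five compound concentrations were applied to cells in 96-well plates for 48 hours; endpoints were derived by simple linear interpolation of the resulting dose-response curve. Here, GI50 denotes the concentration required for 50% inhibition of growth. The concentration for full growth arrest is given as TGI.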

Assay in all cases: NCI-60 cell line screen, 48 h
Test [1] deals with HT29 colon.
Test [2] relates to RXF 393 renal.
In test [3] the test system is HOP-92 NSCLC.
Test [4] has as its system MCF7 breast.
Test [5] has as its system SF-295 CNS.
In test [6] the test system is MDA-MB-231 breast.
Test [7] relates to OVCAR-5 ovarian.
The test system of test [8] is SK-MEL-28 melanoma.
Test [9] deals with HCT-15 colon.
The subject of test [10] is HOP-62 NSCLC.

As for `COC(=O)c1ccc2c(c1)nc(-c1ccc(Cl)cc1)n2-c1cc(C(C)(C)C)[nH]n1`, the GI50 is 3.65 µM in [1]; 1.57 µM in [2]; 1.15 µM in [3]; 2.79 µM in test [4]; 2.48 µM in test [5]; 4.62 µM in [6]. Also, the GI50 is 12.9 µM in [7], 3.38 µM in test [8], 4.36 µM in test [9] and 3.41 µM in test [10]. For the same compound, the TGI is 15.4 µM in test [1]; 5.77 µM in [2]; 8.02 µM in test [3]; 12.3 µM in test [4]; 8.98 µM in test [5]; 27 µM in test [6]. The TGI in [7] was 60.1 µM; in [8] it was 15.5 µM; in test [9] it was over 100 µM; in test [10], 21 µM.

As to `CC(O)CN(CCN(CC(C)O)CC(C)O)CC(C)O.O=[N+]([O-])O.[Cu+2]` (stereo not given), the GI50 in test [1] was over 100 µM; in test [2], over 100 µM; in test [3], over 100 µM; in test [4], 93.1 µM; in [5], 9.07 µM; in [6] it was over 100 µM. For the same compound, the GI50 in [7], in [8], in test [9] and in test [10] was over 100 µM throughout. The TGI in [1], in test [2], in test [3], in test [4], in [5] and in [6] was over 100 µM each time. In addition, the TGI in [7], in test [8], in test [9] and in test [10] was over 100 µM in each case.

In the case of `Cn1c2ccccc2c2c3c(c4c5ccccc5n(CCCCCC#N)c4c21)C(=O)N(O)C3=O`, the GI50 was 1.65 µM in test [1]; 1.83 µM in test [2]; 1.77 µM in test [3]; 0.299 µM in test [4]; 3.03 µM in [5]; 2.34 µM in [6]. Moreover, the GI50 in test [7] is 2.43 µM; in test [8], 1.72 µM; in test [9], 1.82 µM; in test [10] it was 0.42 µM. Moreover, the TGI in [1] amounted to 3.36 µM; in test [2], 7.75 µM; in test [3] it was 6.99 µM; in test [4], 27.9 µM; in test [5], 9.71 µM; in test [6] it was 7.92 µM. In addition, the TGI in test [7] amounted to 8.04 µM; in test [8], 9.91 µM; in test [9], 50.9 µM; in [10], 5.65 µM.

For `O=Nc1c(-c2cccc([N+](=O)[O-])c2)nc2ncccn12`, the GI50 in test [1] was 9.84 µM; in test [3], 3.19 µM; in [4] it was 3.51 µM; in test [5] it was 21.9 µM; in [6], 16.4 µM; in [7], 18.5 µM. The results for the GI50 in [8], in test [9] and in test [10] were 15.2 µM, 3.77 µM and 20.9 µM, respectively. Moreover, the TGI worked out at 44.1 µM in test [1]; 3.01 µM in [2]; 21.6 µM in [3]; 22.6 µM in test [4]; 66.5 µM in test [5]; 35.2 µM in test [6]. Besides, the TGI in test [7] was 39.1 µM; in test [8], 30.2 µM; in test [9], 17.8 µM; in test [10], 48.7 µM.

As for `Nc1nc(Cl)nc2c1ncn2C1O[C@H](CO)[C@@H](O)[C@@H]1F` (stereo not given in full), the TGI is over 100 µM in test [1]; 35.3 µM in test [2]; 4.8 µM in test [3]; over 100 µM in test [4]; over 100 µM in [5]; over 100 µM in [6]. The TGI is over 100 µM in test [7], over 100 µM in test [8], over 100 µM in test [9] and 20.6 µM in [10]. Further, the GI50 in [2] was 1.48 µM; in [3] it was 0.0653 µM; in test [4] it was 0.185 µM; in test [5], 2.87 µM; in test [7], 3 µM; in [8], over 100 µM. Also, the figures for the GI50 in test [9] and in [10] were 4.73 µM and 0.239 µM, respectively.

Turning to `COc1ccc(/C=C(/C(=O)N2CCNCC2)c2cc(OC)c(OC)c(OC)c2)cc1O`, the GI50 in test [1] is 7.75 µM; in test [2] it was 2.95 µM; in test [3] it was 23.5 µM; in [4], 1.34 µM; in test [5], 5.36 µM; in [6], 4.41 µM. Moreover, the GI50 is 6.21 µM in [7], 8.84 µM in [8], 36.7 µM in test [9] and 5.08 µM in test [10]. Moreover, the TGI was over 100 µM in test [1]; over 100 µM in test [2]; over 100 µM in test [3]; over 100 µM in [4]; 60.3 µM in [5]; over 100 µM in [6]. Also, the TGI in [7], in test [8], in test [9] and in test [10] was over 100 µM in each case.

Consider `CN(C)CCn1cc(-c2ccc3c(Nc4ccc(CC(=O)Nc5cccc(F)c5)cc4)ncnc3c2)cn1`, for which the GI50 in [1] is 1.29 µM; in test [2] it was 1.35 µM; in test [3], 6.27 µM; in test [4] it was 1.21 µM; in [5], 2.95 µM; in [6], 1.55 µM. Further, the GI50 was 1.58 µM in test [7], 1.61 µM in test [8], 4.44 µM in [9] and over 10 µM in [10]. For the same compound, the TGI was 3.16 µM in test [1]; 2.84 µM in test [2]; over 10 µM in test [3]; 3.55 µM in test [4]; over 10 µM in [5]; 3.35 µM in test [6]. In addition, the TGI in test [7] was 4.26 µM; in [8] it was 3.02 µM; in test [9] it was over 10 µM; in [10], over 10 µM.

For the compound `Cc1nc2cc(O)c(O)cc2cc1Oc1ccc(NC(=O)Nc2ccc(Cl)c(Cl)c2)cc1`, the GI50 in test [1] is 11.9 µM; in [2], 9.24 µM; in [3], 2.85 µM; in [4], 8.71 µM; in test [5] it was 11.4 µM; in test [6], 2.49 µM. Besides, the GI50 was 11.6 µM in [7], 9 µM in [8], 5.47 µM in test [9] and 8.62 µM in [10]. Besides, the TGI in [1] was over 32.5 µM; in test [2], over 32.5 µM; in test [3], 16.7 µM; in test [4] it was over 32.5 µM; in test [5], over 32.5 µM; in [6], over 32.5 µM. Also, the TGI in test [7] was 29.3 µM; in test [8], 30.1 µM; in test [9] it was over 32.5 µM; in test [10] it was over 32.5 µM.

As to `O=C1NC(=NCc2ccccn2)S/C1=C\c1ccc2ncccc2c1`, the GI50 in test [1] was 15 µM; in [2], 8.8 µM; in test [3] it was 6.5 µM; in [4], 8.75 µM; in [5] it was 14.7 µM; in [6], 17.8 µM. In addition, the GI50 in test [7] was over 25 µM; in test [8] it was over 23.7 µM; in test [9] it was 6.86 µM; in test [10] it was 13.2 µM. Moreover, the TGI in test [1] is over 25 µM; in [2], over 25 µM; in [3], over 21.8 µM; in [4], over 25 µM; in test [5], over 25 µM; in test [6], over 25 µM. Also, the TGI in test [7], in test [8], in [9] and in [10] was over 25 µM in each case.

As for `O=C(/C=N/O)c1c(-c2ccccc2)[nH]c(-c2ccccc2)c1-c1ccccc1`, the TGI in test [1] stood at 61 µM; in [2], 31.6 µM; in test [3], 67.1 µM; in test [4], 39.7 µM; in test [5] it was 34.2 µM; in [6], 28.7 µM. In addition, the TGI in test [7] was 21.7 µM; in test [8] it was 39 µM; in test [9], 45.8 µM; in test [10], over 100 µM.

With `CC1=C(C(=O)Nc2ccc(F)c(Cl)c2)C(c2cccc(Cl)c2)NC(=O)N1` (stereo not given), the GI50 was 14.8 µM in [1]; 15 µM in [2]; 15.5 µM in test [3]; 19.8 µM in test [4]; 20.2 µM in test [5]; 11.6 µM in [6]. Besides, the GI50 is 23 µM in test [7], 13.8 µM in test [8], 20.6 µM in test [9] and 17.5 µM in [10]. The TGI amounted to 30.1 µM in test [1]; 31.5 µM in [2]; 33 µM in test [3]; 46 µM in [4]; 50.9 µM in test [5]; 25.1 µM in test [6]. Moreover, the TGI in test [7] was 45.7 µM; in test [8] it was 28 µM; in [9], 46.9 µM; in test [10], 35 µM.

With `O=[N+]([O-])c1ccc2[nH]cc(-c3c4ccccc4cc4[nH]c5ccc([N+](=O)[O-])cc5c34)c2c1`, the GI50 in test [1] was 3.62 µM; in [2], 2.03 µM; in test [3], 2.25 µM; in test [4], 1.65 µM; in test [5], 1.63 µM; in test [6], 2.27 µM. In addition, the GI50 in [7] is 2.21 µM; in test [8], 1.8 µM; in test [9] it was 1.88 µM; in test [10] it was 2.54 µM. For the same compound, the TGI was 11.3 µM in test [1]; 4.73 µM in test [2]; 5.89 µM in [3]; 3.73 µM in [4]; 3.73 µM in test [5]; 5.83 µM in [6]. The TGI amounted to 5.94 µM in [7], 3.71 µM in test [8], 4.49 µM in test [9] and 7.25 µM in [10].

Regarding `Cn1c(=O)c(F)c(Nc2ccc(I)cc2F)c2c(=O)n(C[C@@H](O)CO)cnc21`, the GI50 in [1] was < 0.01 µM and 0.0029 µM; in [2] it was 0.16 µM and 0.162 µM; in test [3], under 0.01 µM; in test [4], 21 µM; in test [5] it was 14.1 µM and > 2.11 µM; in test [6] it was 0.0442 µM and 0.0456 µM. The GI50 was < 0.01 µM and 0.0058 µM in test [7]; < 0.01 µM and 0.00301 µM in [8]; 1.9 µM and 0.873 µM in test [9]; 0.0545 µM and 0.0151 µM in test [10]. The TGI in [1] was 19.5 µM and > 3.46 µM; in test [2], 4 µM and > 2.93 µM; in [3], 0.087 µM and 0.179 µM; in test [4], 75 µM and > 4.05 µM; in [5], over 78.3 µM; in test [6] it was 8.98 µM and > 1.99 µM. In addition, the TGI in test [7] is 35.3 µM and > 1.97 µM; in test [9] it was 43.2 µM and > 8.26 µM; in test [10], over 69.7 µM.

In the case of `C[n+]1c2ccccc2c(NC2CCNCC2)c2[nH]c3ccccc3c21`, the GI50 is 0.18 µM in [1]; 1.15 µM in test [3]; 0.231 µM in test [4]; 0.64 µM in [5]; 0.762 µM in [6]; 1.76 µM in test [7]. The GI50 in test [8] is 1.03 µM; in [9], 10.3 µM; in test [10], 0.473 µM. Moreover, the TGI in [1] was found to be 2.64 µM; in test [2] it was 0.46 µM; in test [3], 6.86 µM; in test [4], 2.2 µM; in test [5], 8.32 µM; in [6] it was 7.19 µM. For the same compound, the TGI in test [7] is 17.6 µM; in test [8], 2.95 µM; in [9], over 46 µM; in [10] it was 5.17 µM.

As to `Cn1c(=O)c(Cc2ccc(F)cc2F)cc2cnc(NC3CCOCC3)nc21`, the GI50 in test [1] was over 25 µM; in test [2], 18.5 µM; in test [3], 2.13 µM; in test [4], over 25 µM; in test [5], over 25 µM; in [6], over 16.2 µM. The GI50 in test [7], in test [8], in test [9] and in test [10] was over 25 µM in each case. The TGI in test [1], in test [2], in test [3], in [4], in [5] and in test [6] was over 25 µM each time. In addition, the TGI in test [7], in test [8], in [9] and in test [10] was over 25 µM each time.
